Test results from EP0482939A1, “Isoquinolinone derivative” (ONO PHARMACEUTICAL CO., LTD., priority 1990, dated 1992).

Key:
5-HT3 receptor = biological target: T1, 5-HT3 receptor (Rattus norvegicus, UniProt P35563); experiment: Suppression of 5-HT-induced reflex bradycardia in urethane-anesthetised rats (antagonistic activity against 5-HT3 receptor in vivo); parameters: species or system Male Wister rat; details: intravenous administration, suppression of reflex bradycardia generated by i.v. 5-HT, read-out: IC50 i.v.
T1 construct: from tissue
T1 sequence (P35563 24-483): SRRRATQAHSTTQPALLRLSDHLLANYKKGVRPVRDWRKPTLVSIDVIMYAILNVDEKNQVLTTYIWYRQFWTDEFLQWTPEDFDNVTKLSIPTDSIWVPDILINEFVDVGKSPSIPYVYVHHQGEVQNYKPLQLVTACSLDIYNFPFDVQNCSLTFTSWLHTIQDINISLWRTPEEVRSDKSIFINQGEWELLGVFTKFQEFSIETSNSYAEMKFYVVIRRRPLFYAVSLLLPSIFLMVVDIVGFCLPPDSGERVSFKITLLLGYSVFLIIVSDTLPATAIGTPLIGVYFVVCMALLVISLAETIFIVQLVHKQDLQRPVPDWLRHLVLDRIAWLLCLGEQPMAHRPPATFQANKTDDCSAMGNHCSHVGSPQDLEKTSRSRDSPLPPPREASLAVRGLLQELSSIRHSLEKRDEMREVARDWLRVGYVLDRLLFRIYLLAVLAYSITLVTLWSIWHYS
Protocol: Male Wister rat was urethane-anesthetised and fixed. Cannulas were inserted in the carotoid artery and in the thigh vein as used for recording of blood pressure and heart beat, and for the administration of the test compounds, respectively.
Several doses of a compound of the present invention were administered from the vein. 5-HT was administered rapidly to the vein, 2 mins. after insertion of cannulas. The suppression effect of the compounds were confirmed by the measurement of the reflex bradycardia generated (Nature 316, 126 (1985)).

[1] = Acute toxicity by intravenous administration; details: mouse, in vivo; intravenous administration in mice
Protocol: Tests confirmed that the toxicity of the compounds of the present invention is very low. Therefore, the compounds of the present invention may be considered to be sufficiently safe and suitable for pharmaceutical use.
For example, the value of acute toxicity (LD50) of the compound prepared as in Example 1 was 50 mg/kg animal body weight by intravenous administration in mice.

| SMILES | ED50 (5-HT3 receptor) [mg/kg] | LD50 [1] [mg/kg] |
| --- | --- | --- |
| CNc1cc2ccn(Cc3nc[nH]c3C)c(=O)c2cc1Cl.Cl.Cl [1(d), 6-methylamino-7-chloro-2-(5-methyl-imidazol-4-ylmethyl)-1,2-dihydro-isoquinolin-1-one dihydrochloride] | 0.49 | – |
| CNc1cc(Cl)cc2c(=O)n(Cc3nc[nH]c3C)ccc12.Cl.Cl [1(e), 5-methylamino-7-chloro-2-(5-methyl-imidazol-4-ylmethyl)-1,2-dihydro-isoquinolin-1-one dihydrochloride] | 1.44 | – |
| CC(=O)Nc1cc2ccn(Cc3nc[nH]c3C)c(=O)c2cc1Cl [Example 1(a)] | 0.99 | – |
| Cc1[nH]cnc1Cn1ccc2cc(N)c(Cl)cc2c1=O.Cl.Cl [Example 1, 6-amino-7-chloro-2-(5-methylimidazol-4-ylmethyl)-1,2-dihydroisoquinolin-1-one dihydrochloride] | 0.39 | 50 |
